Calls of active or inactive are those of the source. No cut-off for these calls is given here.
What was measured:
[1] = Selectivity index, ratio of LC50 for cytotoxicity against human THP-1 cells to EC50 of leishmanicidal activity against axenic amastigote stage of Leishmania infantum MCAN/ES/89/IPZ229/1/89
[2] = Cytotoxicity against human THP-1 cells assessed as reduction in cell proliferation incubated for 24 hrs by propidium iodide staining based flow cytometry
Leishmania infantum [3] = assay: Leishmanicidal activity against axenic amastigote stage of Leishmania infantum MCAN/ES/89/IPZ229/1/89 assessed as reduction of proliferation of amastigotes incubated for 24 hrs by propidium iodide staining based flow cytometry; format: functional, organism-based; details: MCAN/ES/89/IPZ229/1/89, 24 h
Trypanothione reductase [4] = target: T1, Trypanothione reductase (Leishmania infantum, UniProt A4HSF7); assay: Inhibition of recombinant His-tagged Leishmania infantum TryR oxidoreductase activity expressed in Escherichia coli BL21 (DE3) using TS2 and NADPH as substrate by DTNB-reagent based spectrophotometric method
T1 sequence (A4HSF7 whole entry): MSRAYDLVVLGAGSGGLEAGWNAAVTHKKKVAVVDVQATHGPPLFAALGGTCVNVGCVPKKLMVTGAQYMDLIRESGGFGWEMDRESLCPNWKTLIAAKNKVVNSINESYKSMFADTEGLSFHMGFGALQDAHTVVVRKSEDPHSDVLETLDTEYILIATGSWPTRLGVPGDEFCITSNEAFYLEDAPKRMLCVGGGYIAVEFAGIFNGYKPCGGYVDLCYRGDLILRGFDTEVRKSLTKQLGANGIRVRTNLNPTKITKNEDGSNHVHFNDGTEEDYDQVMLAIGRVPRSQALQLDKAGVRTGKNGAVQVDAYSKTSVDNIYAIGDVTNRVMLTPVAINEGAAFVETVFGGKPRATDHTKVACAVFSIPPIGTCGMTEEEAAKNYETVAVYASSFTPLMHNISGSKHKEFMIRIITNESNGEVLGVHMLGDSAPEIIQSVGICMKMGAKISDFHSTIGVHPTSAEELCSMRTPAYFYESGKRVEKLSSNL

Leishmania infantum [5] = assay: Leishmanicidal activity against GFP-expressing axenic amastigote stage of Leishmania infantum MCAN/ES/89/IPZ229/1/89 infected in human THP-1 macrophage cells assessed as reduction in intracellular amastigotes incubated for 48 hrs by propidium iodide staining based flow cytometry; format: functional, organism-based; details: MCAN/ES/89/IPZ229/1/89, THP-1, 48 h
Trypanothione reductase [6] = target: T1, Trypanothione reductase; assay: Non competitive type inhibition of recombinant His-tagged Leishmania infantum TryR oxidoreductase activity expressed in Escherichia coli BL21 (DE3) assessed as inhibition constant using NADPH and varying concentration of TS2 as substrate by double reciprocal Lineweaver-Burk plot analysis
[7] = target: Trypanothione reductase (Leishmania infantum) (UniProt A4HSF7); assay: Uncompetitive type inhibition of recombinant His-tagged Leishmania infantum TryR oxidoreductase activity expressed in Escherichia coli BL21 (DE3) assessed as inhibition constant using TS2 and varying concentration of NADPH as substrate by double reciprocal Lineweaver-Burk plot analysis
Trypanothione reductase (Leishmania infantum), sequence (A4HSF7 as listed by the source): as the sequence (A4HSF7 whole entry) above

[8] = target: Trypanothione reductase (Leishmania infantum) (UniProt A4HSF7); assay: Inhibition of recombinant His-tagged Leishmania infantum TryR expressed in Escherichia coli BL21 (DE3) assessed as TryR mediated cytochrome c reduction in presence of NADPH at 10 uM by spectrophotometric method

| Structure (SMILES) | selectivity ratio [1] | CC50 at 24 h [2] | EC50 (Leishmania infantum [3]) | IC50 (Trypanothione reductase [4]) | EC50 (Leishmania infantum [5]) | Ki (Trypanothione reductase [6]) | alphaKi [7] | inhibition [8] |
| --- | --- | --- | --- | --- | --- | --- | --- | --- |
| CCc1cc2c3cccn3c3cc(Cl)ccc3[n+]2nc1CC | 304 | 24300 nM | 80 nM | 25700 nM | 3100 nM | – | – | – |
| CCc1cc2c3ccc(Br)n3c3cc(Cl)ccc3[n+]2nc1CC | 85.6 | 6850 nM | 80 nM | 2980 nM | 1230 nM | 2830 nM | 1.37 µM | Active |
| CCN(CC)CCCC(C)Nc1c2ccc(Cl)cc2nc2ccc(OC)cc12 (stereo not drawn) [QUINACRINE] | – | – | – | 13500 nM | – | – | – | – |
| CCCCCCCCCCCCCCCCOP(=O)([O-])OCC[N+](C)(C)C [MILTEFOSINE] | 14.8 | 7690 nM | 520 nM | – | 550 nM | – | – | – |

— ChEMBL document CHEMBL5143518, “Pyridazino-pyrrolo-quinoxalinium salts as highly potent and selective leishmanicidal agents targeting trypanothione reductase” (Eur J Med Chem, 2022)
